{"source": "patent US7087430B2", "about": "“Human VNO cDNA libraries” (Pherin Pharmaceuticals, Inc., priority 2000, dated 2006)", "key": {"human VNO": {"test_system": "human VNO", "settings": "cited from earlier work"}, "female human VNO cell": {"test_system": "female human VNO cell", "assay": "Electrophysiological membrane currents in cultured human VNO cells", "type": "cell-based", "text": "FIG. 1 is an electrophysiological trace showing the effects of pertussis toxin on membrane currents induced by a vomeropherin.\nFIG. 1C indicates when the cells were exposed to ADO (i.e., ADO pulses).\nPTX uncouples receptors from their heterotrimeric G proteins and thereby blocks signal transduction. Sensitivity to PTX is an accepted marker for pathways involving G protein-coupled receptors that decrease intracellular CAMP, regulate ion channels or activate phospholipases (i.e., couple to Gi or G0). (For a review, see Simon et al., (1991) Science 252:802–808.) We have also implicated a specific type of ion channel in the response of human VNO cells to vomeropherins. […] However, as noted above, cultured VNO cells are of limited value as a screening tool due to the need to continually isolate new cells. Thus, construction of a cDNA library was desired in order to clone and express pheromone receptors in a cell line.\nAs noted above, […] data (FIG. 1) indicate that cells isolated from the VNO of human volunteers respond electrophysiologically to a vomeropherin via a PTX-sensitive pathway, a hallmark of G protein-coupled receptor signaling. Thus, we anticipated that components of the pathway such as G proteins (e.g., Gi and G0), adenylyl cyclase (e.g., type 3 and 7), and various ion channels are expressed in these cells. We assayed for expression of these proteins in the VNO by screening our library for cDNA clones of the corresponding mRNAs. Knowledge of the signaling components expressed in VNO neurons is essential to express the receptors functionally in tissue culture cells for high throughput drug screening assays."}, "human brain": {"test_system": "human brain", "settings": "human volunteers, delivered non-specifically to the nasal cavity, no detectable odor (Sobel et al. 1999); cited from earlier work"}}, "data": [{"compound": "C[C@@]12C=CC[C@H]1[C@@H]1CCC3=CC(=O)CC[C@]3(C)[C@H]1CC2", "note": "[androstadienone, androsta-4,16-dien-3-one]", "values": [{"measurement": "physiological responses on administration to the human VNO", "setting": "human VNO", "result": "induce bradycardia, bradypnea, increases in core body temperature, and other physiological responses"}, {"measurement": "inward membrane currents induced by vomeropherin", "setting": "female human VNO cell; 10^−7M, human VNO cell, FIG. 1A", "result": "inward currents induced"}]}, {"compound": "C[C@@]12C=CC[C@H]1[C@@H]1CCc3cc(O)ccc3[C@H]1CC2", "note": "[estra-1,3,5(10),16-tetraen-3-ol]", "values": [{"measurement": "physiological responses on administration to the human VNO", "setting": "human VNO", "result": "induce bradycardia, bradypnea, increases in core body temperature, and other physiological responses"}]}, {"compound": "CC(=O)Oc1ccc2c(c1)CC[C@@H]1[C@@H]2CC[C@]2(C)C=CC[C@@H]12", "note": "[estra-1,3,5(10),16-tetraen-3yl acetate]", "values": [{"measurement": "brain activation by fMRI", "setting": "human brain", "result": "dose-dependent activation of the anterior medial thalamus, the inferior frontal gyrus, and other regions of the human brain"}, {"measurement": "physiological responses in vivo by site of application", "setting": "human VNO; human subjects, VNO versus olfactory or respiratory epithelium (Monti-Bloch et al. 1994)", "result": "induces physiological responses in vivo only when applied specifically to the VNO"}]}, {"compound": "pertussis toxin", "values": [{"measurement": "effect on ADO-induced inward currents", "setting": "female human VNO cell; cell incubated with 100 ng/ml PTX, FIG. 1B", "result": "blocking the inward currents"}, {"measurement": "effect on electrophysiological response to a vomeropherin", "setting": "female human VNO cell; cultured human VNO neuroepithelial cells, FIG. 1", "result": "blocks the electrophysiological response to a vomeropherin"}]}]}
